From ChEMBL document CHEMBL1909046, “DrugMatrix in vitro pharmacology data”

Key:
[1] = target: T1, Alpha-2A adrenergic receptor (Homo sapiens, UniProt P08913); type: cell membranes, Sf9, Membrane; details: sf9; further: in other assays of this panel Not Active means under 50% inhibition at 10 µM
T1 sequence (P08913 whole entry): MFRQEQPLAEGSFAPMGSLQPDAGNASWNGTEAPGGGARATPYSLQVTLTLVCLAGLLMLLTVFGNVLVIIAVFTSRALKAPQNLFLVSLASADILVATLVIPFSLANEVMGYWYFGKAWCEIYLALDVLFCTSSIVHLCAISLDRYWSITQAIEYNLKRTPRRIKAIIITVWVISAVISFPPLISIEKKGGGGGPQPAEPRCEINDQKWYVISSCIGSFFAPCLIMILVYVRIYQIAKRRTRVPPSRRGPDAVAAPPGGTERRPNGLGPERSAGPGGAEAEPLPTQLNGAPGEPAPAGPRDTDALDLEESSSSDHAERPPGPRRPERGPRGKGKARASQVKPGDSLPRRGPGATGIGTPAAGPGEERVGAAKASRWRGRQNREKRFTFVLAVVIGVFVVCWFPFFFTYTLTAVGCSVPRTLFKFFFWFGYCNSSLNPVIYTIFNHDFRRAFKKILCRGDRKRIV

[2] = DRUGMATRIX: Calcium Channel Type L, Phenylalkylamine radioligand binding (ligand: [3H] (-)-Desmethoxyverapamil (D-888)); type: cell membranes, Rattus norvegicus, Wistar, Brain, Membrane; details: Not Active = under 50% inhibition at 10 µM
[3] = target: Beta-1 adrenergic receptor (Homo sapiens, UniProt P08588); test: DRUGMATRIX: Adrenergic beta1 radioligand binding (ligand: [125I] Cyanopindolol); type: cell membranes, CHO-K1, Membrane; details: cho-k1; Not Active = under 50% inhibition at 10 µM
Chain of Beta-1 adrenergic receptor (P08588 whole entry): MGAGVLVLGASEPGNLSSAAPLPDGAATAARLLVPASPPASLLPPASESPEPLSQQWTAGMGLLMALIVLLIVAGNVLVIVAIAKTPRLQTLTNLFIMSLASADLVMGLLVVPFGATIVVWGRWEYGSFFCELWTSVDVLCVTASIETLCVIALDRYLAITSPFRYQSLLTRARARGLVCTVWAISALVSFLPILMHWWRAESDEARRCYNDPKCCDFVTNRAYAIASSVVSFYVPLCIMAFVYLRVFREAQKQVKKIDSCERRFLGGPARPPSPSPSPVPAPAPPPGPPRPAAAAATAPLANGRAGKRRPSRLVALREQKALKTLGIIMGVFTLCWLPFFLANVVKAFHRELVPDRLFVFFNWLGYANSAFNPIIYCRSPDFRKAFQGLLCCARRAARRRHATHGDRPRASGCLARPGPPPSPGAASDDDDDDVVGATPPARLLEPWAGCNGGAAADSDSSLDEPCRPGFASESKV

Interstitial collagenase = target: T2, Interstitial collagenase (Homo sapiens, UniProt P03956); test: biochemical; type: tissue-based, Rheumatoid synovial fibroblasts;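 further: MMP-1 enzyme inhibition assay using a peptide substrate; in other assays of this panel Not Active means under 50% inhibition at 10 µM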
T2 sequence (P03956 whole entry): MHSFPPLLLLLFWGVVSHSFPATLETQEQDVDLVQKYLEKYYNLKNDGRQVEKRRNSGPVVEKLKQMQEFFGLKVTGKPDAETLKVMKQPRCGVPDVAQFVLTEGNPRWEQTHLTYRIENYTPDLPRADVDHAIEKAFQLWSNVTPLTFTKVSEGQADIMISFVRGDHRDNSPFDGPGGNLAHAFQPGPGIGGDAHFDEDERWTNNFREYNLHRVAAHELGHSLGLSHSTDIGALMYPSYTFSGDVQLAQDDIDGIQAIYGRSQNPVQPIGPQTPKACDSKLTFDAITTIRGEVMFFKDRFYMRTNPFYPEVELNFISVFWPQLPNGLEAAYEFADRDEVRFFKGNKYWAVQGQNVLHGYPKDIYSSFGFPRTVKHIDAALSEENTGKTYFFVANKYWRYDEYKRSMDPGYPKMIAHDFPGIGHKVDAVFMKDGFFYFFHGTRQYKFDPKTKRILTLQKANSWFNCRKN

Acetylcholinesterase = Acetylcholinesterase (Homo sapiens, UniProt P22303); test: DRUGMATRIX: Acetylcholinesterase enzyme inhibition (substrate: acetylthiocholine); type: cell-based, HEK293; details: hek293; Not Active = under 50% inhibition at 10 µM
Chain of Acetylcholinesterase (P22303 whole entry): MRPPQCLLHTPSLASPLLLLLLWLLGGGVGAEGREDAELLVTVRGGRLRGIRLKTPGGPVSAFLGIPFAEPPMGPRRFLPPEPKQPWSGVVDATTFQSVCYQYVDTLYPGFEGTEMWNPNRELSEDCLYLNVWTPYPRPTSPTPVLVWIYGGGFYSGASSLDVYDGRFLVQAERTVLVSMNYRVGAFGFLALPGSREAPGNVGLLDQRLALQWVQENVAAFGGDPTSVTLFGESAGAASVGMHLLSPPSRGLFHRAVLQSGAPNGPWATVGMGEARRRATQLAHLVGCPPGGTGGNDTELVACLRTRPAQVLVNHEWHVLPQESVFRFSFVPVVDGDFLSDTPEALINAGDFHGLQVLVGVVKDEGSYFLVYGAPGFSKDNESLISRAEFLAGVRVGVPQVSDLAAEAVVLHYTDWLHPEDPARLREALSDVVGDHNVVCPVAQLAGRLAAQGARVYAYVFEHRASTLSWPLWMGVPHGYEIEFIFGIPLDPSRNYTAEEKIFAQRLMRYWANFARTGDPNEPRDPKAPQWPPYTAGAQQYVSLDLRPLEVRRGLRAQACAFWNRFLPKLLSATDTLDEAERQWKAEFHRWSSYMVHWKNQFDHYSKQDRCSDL

[4] = DRUGMATRIX: Phorbol Ester radioligand binding (ligand: [3H] PDBu); type: cell membranes, Mus musculus, ICR, Brain, Membrane; details: Not Active = under 50% inhibition at 10 µM

Cc1cccc(N(C)C(=S)Oc2ccc3ccccc3c2)c1 [TOLNAFTATE]
Not Active: IC50 [1] | IC50 [2] | Ki [2] | IC50 [3] | IC50 (Interstitial collagenase) | IC50 (Acetylcholinesterase) | IC50 [4] | Ki [4]

NC[C@H]1CC[C@H](C(=O)O)CC1 [TRANEXAMIC ACID]
Not Active: IC50 [1] | IC50 [2] | Ki [2] | IC50 [3] | IC50 (Interstitial collagenase) | IC50 (Acetylcholinesterase) | IC50 [4] | Ki [4]

CC1(C)O[C@@H]2C[C@H]3[C@@H]4CCC5=CC(=O)C=C[C@]5(C)[C@@]4(F)[C@@H](O)C[C@]3(C)[C@]2(C(=O)CO)O1 [TRIAMCINOLONE ACETONIDE]
Not Active: IC50 [1] | IC50 [2] | Ki [2] | IC50 [3] | IC50 (Interstitial collagenase) | IC50 (Acetylcholinesterase) | IC50 [4] | Ki [4]

NS(=O)(=O)c1cc2c(cc1Cl)NC(C(Cl)Cl)NS2(=O)=O (centres undefined) [TRICHLORMETHIAZIDE]
Not Active: IC50 [1] | IC50 [2] | Ki [2] | IC50 [3] | IC50 (Interstitial collagenase) | IC50 (Acetylcholinesterase) | IC50 [4] | Ki [4]

Cc1c(C)c2c(c(C)c1O)CCC(C)(COc1ccc(CC3SC(=O)NC3=O)cc1)O2 (centres undefined) [TROGLITAZONE]
Not Active: IC50 [1] | IC50 [2] | Ki [2] | IC50 [3] | IC50 (Interstitial collagenase) | IC50 (Acetylcholinesterase) | IC50 [4] | Ki [4]

N[C@@H]1[C@H]2CN(c3nc4c(cc3F)c(=O)c(C(=O)O)cn4-c3ccc(F)cc3F)C[C@@H]12 [TROVAFLOXACIN]
Not Active: IC50 [1] | IC50 [2] | Ki [2] | IC50 [3] | IC50 (Interstitial collagenase) | IC50 (Acetylcholinesterase) | IC50 [4] | Ki [4]

N#CC(C#N)=Cc1ccc(O)c(O)c1 [TYRPHOSTIN 23]
Not Active: IC50 [1] | IC50 [2] | Ki [2] | IC50 [3] | IC50 (Interstitial collagenase) | IC50 (Acetylcholinesterase) | IC50 [4] | Ki [4]

CC[C@]1(O)C[C@H]2CN(CCc3c([nH]c4ccccc34)[C@@](C(=O)OC)(c3cc4c(cc3OC)N(C=O)[C@H]3[C@@](O)(C(=O)OC)[C@H](OC(C)=O)[C@]5(CC)C=CCN6CC[C@]43[C@@H]65)C2)C1 [VINCRISTINE]
Not Active: IC50 [1] | IC50 [2] | Ki [2] | IC50 [3] | IC50 (Interstitial collagenase) | IC50 (Acetylcholinesterase) | IC50 [4] | Ki [4]

CCCOc1ccccc1-c1nc2nn[nH]c2c(=O)[nH]1 [ZAPRINAST]
Not Active: IC50 [1] | IC50 [2] | Ki [2] | IC50 [3] | IC50 (Interstitial collagenase) | IC50 (Acetylcholinesterase) | IC50 [4] | Ki [4]

SODIUM NITROPRUSSIDE
Not Active: IC50 [1] | Ki [1] | IC50 [2] | Ki [2] | IC50 [3] | Ki [3] | IC50 (Interstitial collagenase) | Ki (Interstitial collagenase) | IC50 (Acetylcholinesterase) | Ki (Acetylcholinesterase) | IC50 [4] | Ki [4]
